From paper PMC11990452, “Discovery of MAGL Inhibition by Lophine Derivatives: An Unexpected Finding from Chemiluminescent Assay Development” (Molecules, 2025)
pIC50: −log10 of the molar value.

What was measured:
[1] = target: T1, human recombinant monoacylglycerol lipase (hMAGL) (Homo sapiens, UniProt Q99685); experiment: fluorometric 7-HRO hydrolysis assay, residual activity at […]; type: biochemical
T1 construct: gene MGLL
T1 sequence (Q99685 1-303): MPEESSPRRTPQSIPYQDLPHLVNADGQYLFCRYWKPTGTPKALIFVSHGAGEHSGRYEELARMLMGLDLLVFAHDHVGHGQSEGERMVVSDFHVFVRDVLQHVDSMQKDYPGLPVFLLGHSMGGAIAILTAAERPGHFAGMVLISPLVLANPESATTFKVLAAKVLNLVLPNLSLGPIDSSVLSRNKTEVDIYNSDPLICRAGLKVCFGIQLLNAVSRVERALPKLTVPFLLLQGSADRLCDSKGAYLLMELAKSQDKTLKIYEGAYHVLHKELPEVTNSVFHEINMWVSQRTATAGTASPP

[2] = target: T1, human recombinant monoacylglycerol lipase (hMAGL); experiment: fluorometric 7-HRO hydrolysis assay with recombinant hMAGL; dilution reversibility and Lineweaver-Burk kinetics; type: biochemical

Compound	fluorometric 7-HRO hydrolysis assay, residual activity at 50 nM-100 μM [1]	pIC50 [2]
Oc1ccc(-c2nc(-c3ccccc3)c(-c3ccccc3)[nH]2)cc1 [compound 1, 2-(4-Hydroxyphenyl)-4,5-Diphenylimidazole]	all tested compounds interact with MAGL, leading to a concentration-dependent reduction in enzyme activity	–
CCCC(=O)Oc1ccc(-c2nc(-c3ccccc3)c(-c3ccccc3)[nH]2)cc1 [compound 2, Butyric Acid Ester of 2-(4-Hydroxyphenyl)-4,5-Diphenylimidazole]	all tested compounds interact with MAGL, leading to a concentration-dependent reduction in enzyme activity	–
CCCCCCCC(=O)Oc1ccc(-c2nc(-c3ccccc3)c(-c3ccccc3)[nH]2)cc1 [compound 3, Octanoic Acid Ester of 2-(4-Hydroxyphenyl)-4,5-Diphenylimidazole]	–	4.68
CCCCCCCCCCCCCCCC(=O)Oc1ccc(-c2nc(-c3ccccc3)c(-c3ccccc3)[nH]2)cc1 [compound 4, Palmitic Acid Ester of 2-(4-Hydroxyphenyl)-4,5-Diphenylimidazole]	–	5.19
